Results on three compounds are retold here after patent US20040260272A1, “Method and system for intravesicular delivery of therapeutic agents” (priority 2002, published 2004).

Data set [1] in a line: In vitro release of Ciprofloxacin from cast hydrophilic polyurethane film in phosphate buffer. Type of data set: physicochemical. The note with it: core loading 6.0 wt %, 37 C. As to the method:
A cast film of polyurethane containing Ciprofloxacin was made by reacting hydrophilic polyurethane prepolymer (Urepol 1002A obtained from Envirochem) with distilled water. The reacting mixture was spread in a thin film over a glass petri dish. The film was cured overnight and dried to leave a thin film of polyurethane containing Ciprofloxacin. The resultant drug carrying film was further vacuum-dried. The drug loading was measured to be 0.06 gms per 1 gm of coated film, i.e. 6.0 wt %.
The drug carrying film was placed in phosphate buffer at 37 C and a pH of 7.4 and the Ciprofloxacin in vitro release was measured.

Data set [2] in a line: Immobilization of collagenase in composite foam polymer system. The following applies: composite foam (hydrophobic polyurethane scaffold with hydrophilic polyurethane coating).
The nature of data set [3]: In vitro release of Thio-TEPA from polyurethane-coated polyurethane foam substrate in phosphate buffer. In kind it is physicochemical. The following applies: core loading 0.9 wt %, 37 C. As to the method:
A reticulated TDI/polyether based foam (SIF grade obtained from Foamex) was used as a scaffold or substrate. The foam substrate was 4″×4″ (10.2 cm×10.2 cm) square sample with a thickness of ¼″ or 0.635 cm with a volume of 65.5 cm^3 and weighed 1.2 g, giving a density of 0.0183 gms/cc. 2.42 grams of hydrophilic polyurethane prepolymer (Urepol 1002A obtained from Envirochem) and 64 milligrams of Thio-TEPA was diluted in 6 ml of DMF. The foam was dipped into the solution mixture of polyurethane prepolymer, Thio-TEPA and DMF. The Thio-TEPA containing solution mixture of polyurethane prepolymer and DMF was then distributed and spread over the foam substrate. During the spreading and distribution, it was ensured that solution mixture contacted the foam substrate from all sides and coated both the surface and internal pores of the foam substrate.
The foam substrate with coated solution mixture was held overnight below 8° C. The coating was cured by the reaction of the ambient moisture with the available reactive isocyanate in the prepolymer. After the overnight curing, the foam substrate with coated solution mixture was vacuum-dried to remove residual solvents to leave a coating of polyurethane containing Thio-TEPA.
The final weight of the foam substrate and the drug loaded coating was 3.24 gms. Density of the coated foam substrate was 0.0495 gms/cc. The drug loading was 0.009 gms per 1 gm of coated foam substrate, i.e. 0.9 wt %. The drug entrapment efficiency was 50% calculated from a final measures drug loading of 0.9 wt % and a theoretical drug loading of 1.8 wt %. The weight of the drug in the final coated foam substrate was 0.029 gms or 29 mgs with the drug density on the coated foam substrate being 0.44 mgs per cc.
The coated foam substrate was placed in phosphate buffer at 37 C, and a pH of 7.4 and the Thio-TEPA in vitro release was measured.

`O=C(O)c1cn(C2CC2)c2cc(N3CCNCC3)c(F)cc2c1=O` [Ciprofloxacin]: the “Cumulative Release, % at Day 1” value in data set [1] (pH 7.4, Day 1) is listed as 15.7%. In addition, the “Cumulative Release, % at Day 3” value in data set [1] (pH 7.4, Day 3) came to 16.8%. In data set [1] (pH 7.4, Day 4), the “Cumulative Release, % at Day 4” value is reported as 29.28%.
With collagenase, the “enzymatic activity after immobilization within the polymer system” value in data set [2] is “retain enzymatic activity”.
In the case of `S=P(N1CC1)(N1CC1)N1CC1` [Thio-Tepa, Thio-TEPA], in data set [3] (pH 7.4, Day 1), the “Cumulative Release, % at Day 1” value is listed as 11.9%. Further, the “Cumulative Release, % at Day 3” value in data set [3] (pH 7.4, Day 3) was determined as 43.7%. The “Cumulative Release, % at Day 6” value in data set [3] (pH 7.4, Day 6) stood at 66.6%.
